Columns and labels:
[1] = Serum DBM levels in TRAMP mice fed 1% DBM diet; format: in vivo, mouse
From the text: (§1) Two groups of TRAMP mice were studied, where one is a control cohort and the other is the cohort fed DBM.

[2] = system: prostate specific antigen (PSA); experiment: Extracellular PSA secreted by LNCaP cells exposed to DBM (ELISA analysis); format: cell-based, human; conditions: baseline about 700
From the text: (§2) LNCaP cells cultured in the presence of androgens secrete prostate specific antigen (PSA) into the culture medium.

[3] = system: human prostate cancer cells; experiment: Proliferation of human prostate cancer cells in vitro; format: cell-based
[4] = system: TRAMP (TRansgenic Adenocarcinoma of Mouse Prostate) mice; experiment: Prostate carcinogenesis in TRAMP mice fed 1% DBM diet; format: in vivo
From the text: In other words, development of premalignant prostatic intraepithelial (PIN) neoplasia and primary adenocarcinoma of the prostate of TRAMP mice is similar to the development of prostate cancer in humans. TRAMP mice are discussed in greater detail in U.S. Pat. No. 5,907,087, which is incorporated herein by reference.
as §1

[5] = system: prostate specific antigen (PSA); experiment: Intracellular PSA levels in LNCaP cells exposed to DBM (Western analysis); format: cell-based, human
From the text: as §2

Structure (SMILES): O=C(CC(=O)c1ccccc1)c1ccccc1 [DBM, dibenzoylmethane]
- serum levels of DBM ([1]; diet of 1% DBM from six weeks of age): 1000 nM
- oral absorption from the gastrointestinal tract ([1]; oral DBM in diet): orally bioavailable
- Extracellular PSA ([2]; 25 micromolar DBM): ~150 nanograms per milliliter
- Extracellular PSA ([2]; 50 micromolar DBM): ~100 nanograms per milliliter
- Extracellular PSA ([2]; at micromolar DBM (concentration not given)): approximately 200 nanograms per milliliter
- proliferation of human prostate cancer cells in vitro [3]: inhibit proliferation
- cancer and high-grade prostatic intraepithelial neoplasia versus control cohort ([4]; 1% DBM diet, at 18 weeks): significantly less cancer and high-grade prostatic intraepithelial neoplasia
- mice developing either adenocarcinoma or high grade PIN ([4]; diet of 1% DBM (weight/weight) in AIN-76A from six weeks of age, control cohort 6 of 10): 2 of 11
- DBM concentration at which intracellular PSA is not readily detectable by Western analysis [5]: ≥ 10 µM
- PSA levels ([5]; DBM at 10, 25 and 50 micromolar): dose-dependent down regulation

Source: US20040116529A1, “Anticancer and chemopreventative agents and methods of use thereof” (priority 2001, published 2004)
